The source of these data is patent US20030134859A1 (SANKYO COMPANY, LIMITED, priority 2000, published 2003).

By inhibition is commonly meant the drop in the measured response relative to a control, in per cent.

Where two headings read alike, the source gives them in different places.

In assay [1] the test system is human colon cancer cells COL-2-JCK. Description: Inhibition of colony forming activity in human colon cancer cells. The format is cell-based. To be noted: 1 μM test compound, 10 days, sum of colony areas vs control; for inhibition at 1 µM: Homo sapiens, 240 h, read-out: Inhibition Rate (%) against the colony forming activity. The method, boiled down: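 COL-2-JCK cells seeded at 300 cells/well and grown 10 days at 37 °C, 5% CO2 with compound at 1 μM final (0.1% DMSO). Colonies stained with crystal violet in formalin; inhibition % = (1 − treated/control colony area)×100.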

Assay [2] deals with Mouse preadipocyte strain 3T3-L1. Description: Inhibition of differentiation as an indication of acetic acid uptake. The note with it: control (0.01% dimethylsulfoxide) = 100%; for activity at 0.1 µM: Mus musculus, read-out: Rate of Uptake (%) of [2-14C] acetic acid. The format is cell-based. The method, boiled down: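 Confluent 3T3-L1 cells induced to differentiate for 4 days (insulin, IBMX, dexamethasone, 5% FBS) with test compound at 0.1 μM final or 0.01% DMSO, then 2 days in insulin maintenance medium, at 37 °C, 10% CO2. [2-14C]acetic acid uptake over 1 hr counted by scintillation; expressed as % of DMSO control.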

On to `Cc1ccc(S(=O)(=O)Nc2ccc(NC(=O)c3cc([N+](=O)[O-])ccc3Cl)cc2)cc1` [Example 32, N-[4-(4-Methylbenzene)sulfonylaminophenyl]-(2-chloro-5-nitrophenyl)carboxamide], for which, in assay [1], the “Inhibition Rate (%) against the colony forming activity” value came to 39.0%. Also, in assay [2] (0.1 μM test substance), the “Rate of Uptake (%) of [2-14C] acetic acid” value is reported as 60.5%. For the molecule `O=C(Nc1ccc(NC(=O)c2cc([N+](=O)[O-])ccc2Cl)nc1)c1cc([N+](=O)[O-])ccc1Cl` [Example 64, 2,5-bis(2-Chloro-5-nitrobenzoylamino)pyridine], in assay [2] (0.1 μM test substance), the activity at 0.1 µM was 96.2%. Turning to `O=C(Nc1ccc(-c2ccc(NC(=O)c3cc([N+](=O)[O-])ccc3Cl)cc2)cc1)c1ccccc1` [Example 120, N-[4-(4-Benzoylaminophenyl)phenyl]-(2-chloro-5-nitrophenyl)carboxamide], the inhibition at 1 µM in assay [1] amounted to 44%. Also, the activity at 0.1 µM in assay [2] (3T3-L1, 0.1 μM test substance) is 64.6%. As for `O=C(Nc1nc(-c2ccc3ccccc3c2)cs1)c1cc([N+](=O)[O-])ccc1Cl` [Example 42, N-[4-(2-Naphthyl)thiazol-2-yl)-(2-chloro-5-nitrophenyl)carboxamide], the activity at 0.1 µM in assay [2] (3T3-L1, 0.1 μM test substance) turned out to be 60%. As for `O=C(Nc1ccc(Cl)nn1)c1cc([N+](=O)[O-])ccc1Cl` [Example 89], the “Rate of Uptake (%) of [2-14C] acetic acid” value in assay [2] (0.1 μM test substance) was found to be 58.1%. With `O=C(Nc1nc2cc(Cl)ccc2o1)c1cc([N+](=O)[O-])ccc1Cl` [Example 75, N-(5-Chlorobenzoxazol-2-yl)-(2-chloro-5-nitrophenyl)carboxamide], the inhibition at 1 µM in assay [1] was 65%. The activity at 0.1 µM in assay [2] (3T3-L1, 0.1 μM test substance) came to 80.1%. In the case of `O=C(Nc1ccc([N+](=O)[O-])cc1)c1cc([N+](=O)[O-])ccc1Cl` [Example 23, N-(4-Nitrophenyl)-(2-chloro-5-nitrophenyl)carboxamide], the activity at 0.1 µM in assay [2] (0.1 μM test substance) amounted to 59.5%. With `O=C(Nc1ccc(S(=O)(=O)N2CCOCC2)cc1)c1cc([N+](=O)[O-])ccc1Cl` [Example 153, N-[4-(Morpholin-4-ylsulfonyl)phenyl]-(2-chloro-5-nitrophenyl)carboxamide], in assay [2] (3T3-L1, 0.1 μM test substance), the activity at 0.1 µM was determined as 70.2%. Regarding `CCc1ccc(S(=O)(=O)Nc2ccc(NC(=O)c3cc([N+](=O)[O-])ccc3Cl)cc2)cc1` [Example 150, N-[4-(4-Ethylbenzenesulfonylamino)phenyl]-(2-chloro-5-nitrophenyl)carboxamide], the inhibition at 1 µM in assay [1] came to 41%. In assay [2] (3T3-L1, 0.1 μM test substance), the activity at 0.1 µM was 82.9%. For “N-[4-(4-Methylbenzoylamino)phenyl]phenyl]-(2-chloro-5-nitrophenyl)carboxamide [Example 122]”, the “Rate of Uptake (%) of [2-14C] acetic acid” value in assay [2] (0.1 μM test substance) is 75.4%. Consider `Cc1ccc(C(=O)Nc2nc3ccc(NC(=O)c4cc([N+](=O)[O-])ccc4Cl)cc3s2)cc1` [Example 149, N-[2-(4-Methylbenzoylamino)benzothiazol-6-yl]-(2-chloro-5-nitrophenyl)carboxamide], for which, in assay [2] (3T3-L1, 0.1 μM test substance), the activity at 0.1 µM was found to be 76.5%. For the molecule `O=C(Nc1cnc2ccccc2c1)c1cc([N+](=O)[O-])ccc1Cl` [Example 55, N-(3-Quinolinyl)-(2-chloro-5-nitrophenyl)carboxamide], the inhibition at 1 µM in assay [1] worked out at 8%. Moreover, the activity at 0.1 µM in assay [2] (3T3-L1, 0.1 μM test substance) was determined as 55.4%. Turning to `Cc1noc(NS(=O)(=O)c2ccc(NC(=O)c3cc([N+](=O)[O-])ccc3Cl)cc2)c1C` [Example 104, N-[4-[(3,4-Dimethylisoxazol-6-yl)aminosulfonyl]phenyl]-(2-chloro-5-nitrophenyl)carboxamide], the inhibition at 1 µM in assay [1] was found to be 22%. In addition, the activity at 0.1 µM in assay [2] (3T3-L1, 0.1 μM test substance) was 89.8%.

Consider `Cc1nnc(NS(=O)(=O)c2ccc(NC(=O)c3cc([N+](=O)[O-])ccc3Cl)cc2)s1` [Example 101, N-[4-[(5-Methyl-[1,3,4]thiadiazol-2-yl)aminosulfonyl]phenyl]-(2-chloro-5-nitrophenyl)carboxamide], for which the inhibition at 1 µM in assay [1] was found to be 32%. In addition, the activity at 0.1 µM in assay [2] (3T3-L1, 0.1 μM test substance) came out at 78.3%. Regarding `O=C(Nc1ccc(-c2ccc(NC(=O)c3cc([N+](=O)[O-])ccc3Cl)cc2)cc1)c1cccnc1` [Example 124, N-[4-[4-(Pyridin-3-ylcarbonylamino)phenyl]phenyl]-(2-chloro-5-nitrophenyl)carboxamide], the activity at 0.1 µM in assay [2] (3T3-L1, 0.1 μM test substance) stood at 60%. Consider `Cl.O=C(Nc1ccncc1)c1cc([N+](=O)[O-])ccc1Cl` [Example 146, N-(Pyridin-4-yl)-(2-chloro-5-nitrophenyl)carboxamide Hydrochloride], for which, in assay [2] (3T3-L1, 0.1 μM test substance), the activity at 0.1 µM was 60%. `Cc1ccc(S(=O)(=O)Nc2ccc(-c3ccc(NC(=O)c4cc([N+](=O)[O-])ccc4Cl)cc3)cc2)cc1` [Example 94, N-[4-[4-(4-Toluenesulfonylamino)phenyl]phenyl]-(2-chloro-5-nitrophenyl)carboxamide]: in assay [2] (3T3-L1, 0.1 μM test substance), the activity at 0.1 µM is 80.4%.

As to `O=C(Nc1cc([N+](=O)[O-])ccc1Cl)c1cc([N+](=O)[O-])ccc1Cl` [Example 28, N-(2-Chloro-5-nitrophenyl)-(2-chloro-5-nitrophenyl)carboxamide], the activity at 0.1 µM in assay [2] (0.1 μM test substance) came to 87.8%. As for `O=C(Nc1ccc(Cl)nc1)c1cc([N+](=O)[O-])ccc1Cl` [Example 62, N-(6-Chloropyridin-3-yl)-(2-chloro-5-nitrophenyl)carboxamide], the activity at 0.1 µM in assay [2] (3T3-L1, 0.1 μM test substance) is 82.9%. For `O=C(Nc1ccc(S(=O)(=O)N2CCCCC2)cc1)c1cc([N+](=O)[O-])ccc1Cl` [Example 151, N-[4-(Piperidyisulfonyl)phenyl]-(2-chloro-5-nitrophenyl)carboxamide], in assay [2] (3T3-L1, 0.1 μM test substance), the activity at 0.1 µM is 62.3%. For the molecule `O=C(Nc1nc(-c2cccs2)cs1)c1cc([N+](=O)[O-])ccc1Cl` [Example 36, N-[4-(2-Thienyl)thiazol-2-yl)-(2-chloro-5-nitrophenyl)carboxamide], the activity at 0.1 µM in assay [2] (3T3-L1, 0.1 μM test substance) was determined as 29.2%. For the molecule `O=C(Nc1nc(Cl)cc(Cl)n1)c1cc([N+](=O)[O-])ccc1Cl` [Example 83, N-(4,6-Dichloropyrimidin-2-yl)-(2-chloro-5-nitrophenyl)carboxamide], the activity at 0.1 µM in assay [2] (3T3-L1, 0.1 μM test substance) was found to be 75.6%. On to `O=C(Nc1ncc(Br)cn1)c1cc([N+](=O)[O-])ccc1Cl` [Example 77, N-(5-Bromopyrimidin-2-yl)-(2-chloro-5-nitrophenyl)carboxamide], for which the inhibition at 1 µM in assay [1] stood at 1%. Further, the activity at 0.1 µM in assay [2] (3T3-L1, 0.1 μM test substance) worked out at 62.7%. Take `Cc1ccc(C(=O)Nc2ccc(NC(=O)c3cc([N+](=O)[O-])ccc3Cl)cc2)cc1` [Example 121, N-[4-(4-Methylbenzoyl)aminophenyl]-(2-chloro-5-nitrophenyl)carboxamide]: the activity at 0.1 µM in assay [2] (3T3-L1, 0.1 μM test substance) worked out at 81%. Turning to `Cc1c(C)c2c(c(C)c1O)C(=O)CC(C)(COc1ccc(NC(=O)c3cc([N+](=O)[O-])ccc3Cl)cc1)O2` (stereo not shown) [Example 92, N-[4-(6-Hydroxy-2,5,7,8-tetramethyl-4-oxochroman-2-ylmethoxy)phenyl]-(2-chloro-5-nitrophenyl)carboxamide], in assay [1], the inhibition at 1 µM was determined as 15%. Moreover, the activity at 0.1 µM in assay [2] (3T3-L1, 0.1 μM test substance) stood at 63%. With `CS(=O)(=O)Nc1ccc(-c2ccc(NC(=O)c3cc([N+](=O)[O-])ccc3Cl)cc2)cc1` [Example 93, N-[4-[4-(Methanesulfonylamino)phenyl]phenyl]-(2-chloro-5-nitrophenyl)carboxamide], in assay [1], the inhibition at 1 µM was found to be 44%. For the same molecule, the activity at 0.1 µM in assay [2] (3T3-L1, 0.1 μM test substance) was 90.3%. On to `N#Cc1cccc(NC(=O)c2cc([N+](=O)[O-])ccc2Cl)c1` [Example 21, N-(3-Cyanophenyl)-(2-chloro-5-nitrophenyl)carboxamide], for which the activity at 0.1 µM in assay [2] (3T3-L1, 0.1 μM test substance) amounted to 70.3%.

As to “N-[3-(Pyrrolidinylsulfonyl)phenyl]-(2-chloro-5-nitrophenyl)carboxamide [Example 154]”, the “Rate of Uptake (%) of [2-14C] acetic acid” value in assay [2] (0.1 μM test substance) is on record as 67.4%. `O=C(Nc1cnccn1)c1cc([N+](=O)[O-])ccc1Cl` [Example 140, N-(Pyrazin-2-yl)-(2-chloro-5-nitrophenyl)carboxamide]: in assay [2] (3T3-L1, 0.1 μM test substance), the activity at 0.1 µM came to 72.4%. For the molecule `O=C(Nc1ccc([N+](=O)[O-])cn1)c1cc([N+](=O)[O-])ccc1Cl` [Example 24, N-(5-Nitropyridin-2-yl)-(2-chloro-5-nitrophenyl)carboxamide], the activity at 0.1 µM in assay [2] (0.1 μM test substance) is 66.1%. Regarding `O=C(Nc1ccc(-c2ccc([N+](=O)[O-])cc2)cc1)c1cc([N+](=O)[O-])ccc1Cl` [Example 9, N-[4-(4-Nitrophenyl)phenyl)-(2-chloro-5-nitrophenyl)carboxamide], the inhibition at 1 µM in assay [1] is 29%. In assay [2] (0.1 μM test substance), the activity at 0.1 µM was determined as 59.9%. Turning to `O=C(Nc1cccc([N+](=O)[O-])c1)c1cc([N+](=O)[O-])ccc1Cl` [Example 25, N-(3-Nitrophenyl)-(2-chloro-5-nitrophenyl)carboxamide], in assay [2] (0.1 μM test substance), the activity at 0.1 µM came out at 66.3%.

For the molecule `Cc1ccc2nc(NC(=O)c3cc([N+](=O)[O-])ccc3Cl)sc2c1` [Example 141, N-(6-Methybenzothiazol-2-yl)-(2-chloro-5-nitrophenyl)carboxamide], the “Inhibition Rate (%) against the colony forming activity” value in assay [1] was found to be 47.0%. Besides, the “Rate of Uptake (%) of [2-14C] acetic acid” value in assay [2] (0.1 μM test substance) is 78.7%. In the case of `O=C(Nc1nc2ccc([N+](=O)[O-])cc2s1)c1cc([N+](=O)[O-])ccc1Cl` [Example 34, N-(6-Nitrobenzothiazol-2-yl)-(2-chloro-5-nitrophenyl)carboxamide], in assay [1], the inhibition at 1 µM came to 41%. The activity at 0.1 µM in assay [2] (0.1 μM test substance) amounted to 60.8%.

With `O=C(Nc1cccc(C(=O)N2CCCC2)c1)c1cc([N+](=O)[O-])ccc1Cl` [Example 31], the “Rate of Uptake (%) of [2-14C] acetic acid” value in assay [2] (0.1 μM test substance) is 85.9%. As to `O=C(Nc1nc(-c2ccc(Cl)c(Cl)c2)cs1)c1cc([N+](=O)[O-])ccc1Cl` [Example 43, N-[4-(3,4-Dichlorophenyl)thiazol-2-yl]-(2-chloro-5-nitrophenyl)carboxamide], the activity at 0.1 µM in assay [2] (3T3-L1, 0.1 μM test substance) came out at 56.7%.
